Patent US8987201B2, “Black bear parathyroid hormone and methods of using black bear parathyroid hormone” (Michigan Technological University, priority 2009, dated 2015)

Legend:
[1] = tested on: human fetal osteoblasts (hFOB); test: Serum starvation cell death in human fetal osteoblasts (trypan blue); format: cell-based; conditions: 100 nM for 1 hour before serum starvation for 24 hours, preliminary studies, p<0.0001
Description: All PTH peptides used in the current study attenuated apoptotic signaling induced by serum starvation in vitro (FIG. 19). bbPTH 1-34 reduced apoptotic signaling in pre-osteoblastic cells more than human PTH (FIG. 19). Recently, we found similar results with preliminary studies in human fetal osteoblasts (hFOB). Serum starvation for 24 hours increased cell death in hFOB (confirmed via trypan blue staining), but pretreatment of hFOB cells with 100 nM PTH 1-34 or 1-84 for 1 hour before starvation reduced percent cell death (percentage change in cell death compared to vehicle pretreatment, hPTH 1-34: −18%, bbPTH 1-34: −25%, hPTH 1-84: −17%, bbPTH 1-84: −21%; p<0.0001; data not shown). […] However, although bbPTH 1-84 was less anti-apoptotic than bbPTH 1-34 and hPTH 1-34 in vitro (FIG. 19) it caused the greatest increases in cortical and trabecular bone mass in the in vivo studies (Table 1, Table 2).

[2] = tested on: Male Swiss-Webster mice; test: Trabecular bone structure and mineralization in the proximal tibia (micro-computed tomography); format: in vivo, mouse; conditions: PTH 1-34 study: 11 wk old mice, 8 weeks, proximal tibia, normalized by body mass
Excerpt: All handling procedures and experiments were approved by the Michigan Technological University Institutional Animal Care and Use Committees. Male Swiss-Webster mice were obtained from a commercial breeder (Harlan, Indianapolis, Ind.). All animals were maintained on a 12-h light/12-h dark cycle, and were permitted free access to water and food containing 0.95% calcium (Purina Rodent Diet #5001).
In the first experiment, 11 wk old mice received daily (5 days/week) subcutaneous injections of 2.5 nmol/kg PTH 1-34 (hPTH 1-34 or bbPTH 1-34) or acidic saline vehicle (0.15 M NaCl+0.001 N HCl) for 8 weeks (n=10 mice/group). In the second experiment, 12 wk old mice received daily (5 days/week) subcutaneous injections of 2.5 nmol/kg PTH 1-84 (hPTH 1-84 or bbPTH 1-84) or acidic saline vehicle for 8 weeks (n=10 mice/group). All PTH- and vehicle-treated animals received subcutaneous injections of calcein at a dosage of 10 mg/kg on days 12 and 3 before death to label mineralizing bone surfaces. Twenty-four hours following the last treatment injection, mice were sacrificed by carbon dioxide asphyxiation. Right femurs were fixed in 10% neutral buffered formalin. Left femurs were wrapped in 0.15M saline soaked gauze and stored at −20 deg C. Left tibias were stored in 70% ethanol at 4 deg C.
Trabecular bone architecture and mineralization were evaluated in the left proximal tibial metaphysis (0.7 mm distal to the growth plate) using micro-computed tomography. Tibias from experiment 1 were scanned on a μCT35 scanner (Scanco Medical AG, Basserdorf, Switzerland) at 3.5 μm (high) resolution. Tibias from experiment 2 were scanned on a μCT40 scanner (Scanco Medical AG, Basserdorf, Switzerland) at 7 μm (high) resolution. Bones were scanned in 70% ethanol. Trabecular bone volume fraction (BV/TV, %), trabecular number (Tb.N, mm^−1), trabecular thickness (Tb.Th, m), trabecular separation (Tb.Sp, m), trabecular apparent mineral density (App.Mn.Dn, mgHA/cm^3) and trabecular tissue mineral density (Mat.Mn.Dn, mgHA/cm^3) were computed using the manufacturer's software.
All bone geometrical, architectural, and mineral properties were normalized by body mass to account for potential variation in animal size (31-33). Trabecular bone properties quantified by micro-computed tomography were compared by ANOVA between vehicle, bear, and human PTH-treated mice within each study (PTH 1-34 or PTH 1-84). The microCT parameters were not directly compared between the PTH 1-34 and PTH 1-84 studies because analyses were conducted on different microCT machines. For all other bone properties, all six experimental groups (from both the PTH 1-34 and PTH 1-84 studies) were compared with ANOVA and Fisher's PLSD. A significance of p<0.05 was used for all comparisons.

[3] = tested on: procollagen-1 mRNA; conditions: Nasu et al., 1998; cited from earlier work
[4] = tested on: male mice; conditions: Sakai et al. 1999, cited from earlier work
[5] = tested on: rats; conditions: Tashjian et al. 2008; cited from earlier work

With human PTH 1-34 [hPTH 1-34] the “percentage change in cell death compared to vehicle pretreatment” value [1] was −18%, the BV/TV ([2]; 2.5 nmol/kg s.c. daily 5 days/week) was 1.35 %/kg and the “App. Mn. Dn” value ([2]; 2.5 nmol/kg s.c.) was 1783 mgHA/(cm^3*kg). The “Mat. Mn. Dn.” value ([2]; 2.5 nmol/kg s.c.) was 31281 mgHA/(cm^3*kg), the “Tb. N” value ([2]; 2.5 nmol/kg s.c.) was 105.0 1/mm*kg and the “Tb. Sp” value ([2]; 2.5 nmol/kg s.c.) was 9.57 mm/kg. The “Tb. Th” value ([2]; 2.5 nmol/kg s.c.) was 1.05 mm/kg, the “production of procollagen-1 mRNA” value [3] was “down-regulates” and the “trabecular thickness (Tb.Th) or mineral apposition rates (MAR) in the proximal tibia” value ([4]; daily injections of 1 nmol/kg for 6 weeks) was “did not affect”. For the same substance, the “trabecular thickness (Tb.Th) and mineral apposition rates (MAR) in the proximal tibia” value ([4]; higher molar dosage (˜10 nmol/kg)) was “increased” and the “dose shown to be carcinogenic in rats” value [5] was 5 µg/kg.
